Tests used:
[1] = tested on: Serratia marcescens expressing IMP-1 (CL5741); assay type: cell-based; details: with imipenem 1 μg/ml; 95% inhibition of bacterial growth
Outline: (§1)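 Growth read by absorbance after 22–24 h at 35 °C in CAMHB, with test compound alone or combined with 1 μg/ml imipenem. Inocula came from overnight 35 °C blood-agar colonies, set to a defined OD600 and diluted 1:100. Value is the inhibitor concentration giving synergy.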

[2] = tested on: Klebsiella pneumoniae expressing VIM-1 (IHMA599644); assay type: cell-based; details: with imipenem 1 μg/ml; 95% inhibition of bacterial growth
Outline: as §1

[3] = tested on: Pseudomonas aeruginosa PAO1 MB9798 (efflux+, IMP-1); details: ratio MITC95 PA 9798/MITC95 PA 9799; imipenem at 2 μg/mL
Outline: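 Isogenic PAO1 pair (efflux+ MB9798, efflux− MB9799, both IMP-1) tested by microbroth MIC with fixed imipenem and/or ceftazidime, usually at CLSI breakpoint, plus fixed class A/C inhibitor against AmpC. MBL inhibitor titrated; concentration restoring susceptibility recorded and fold difference between strains taken as efflux extent.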

Q: With C[C@H](CN)NS(=O)(=O)c1ccc(-c2cccnc2NCCN)c(-c2nn[nH]n2)c1S(N)(=O)=O [Example 460, (R)-4-(2-((2-aminoethyl)amino)pyridin-3-yl)-N1-(1-aminopropan-2-yl)-3-(2H-tetrazol-5-yl)benzene-1,2-disulfonamide] as the molecule, how does the “Serratia marcescens (IMP-1) MITC95” value [1] read?
A: 1.563 µM

Q: What about the “Klebsiella pneumoniae (VIM-1) MITC95” value [2] of the same molecule?
A: 1.563 µM

Q: For Cc1cc(-c2ccc(S(=O)(=O)NC[C@H](O)CN)c(S(N)(=O)=O)c2-c2nn[nH]n2)cnc1N [Example 477, (R)—N1-(3-amino-2-hydroxypropyl)-4-(6-amino-5-methylpyridin-3-yl)-3-(2H-tetrazol-5-yl)benzene-1,2-disulfonamide], which “Serratia marcescens (IMP-1) MITC95” value [1] is on record?
A: 0.7813 µM

Q: And the “Klebsiella pneumoniae (VIM-1) MITC95” value [2]?
A: 1.563 µM

Q: What does the source list for C[C@@H](CN)NS(=O)(=O)c1ccc(-c2cccc3sc(N)nc23)c(-c2nn[nH]n2)c1S(N)(=O)=O [Example 389, 4-(2-amino-1,3-benzothiazol-4-yl)-N^1-[(1S)-2-amino-1-methylethyl]-3-(2H-tetrazol-S-yl)benzene-1,2-disulfonamide]?
A: Serratia marcescens (IMP-1) MITC95 [1]: 3.125 µM; Klebsiella pneumoniae (VIM-1) MITC95 [2]: 3.125 µM

Q: For NCC(CN)NS(=O)(=O)c1ccc(-c2cccc3ccc(N)nc23)c(-c2nn[nH]n2)c1S(N)(=O)=O [Example 430, 4-(2-aminoquinolin-8-yl)-N1-(1,3-diaminopropan-2-yl)-3-(2H-tetrazol-5-yl)benzene-1,2-disulfonamide], which “Serratia marcescens (IMP-1) MITC95” value [1] is on record?
A: 1.563 µM

Q: What about the “Klebsiella pneumoniae (VIM-1) MITC95” value [2] of the same molecule?
A: 1.563 µM

Q: How did the “Klebsiella pneumoniae (VIM-1) MITC95” value [2] turn out when NCCNS(=O)(=O)c1ccc(-c2ccccc2NC(=O)CN)c(-c2nn[nH]n2)c1S(N)(=O)=O [Example 452, 2-Amino-N-(4′-(N-(2-aminoethyl)sulfamoyl)-3′-sulfamoyl-2′-(2H-tetrazol-5-yl)-[1,1′-biphenyl]-2-yl)acetamide] was run?
A: 6.25 µM

Q: Which “Serratia marcescens (IMP-1) MITC95” value [1] does the source give for C[C@H](N)CNS(=O)(=O)c1ccc(-c2ccnc(N)c2)c(-c2nn[nH]n2)c1S(N)(=O)=O [Example 421, (S)-N^1-(2-aminopropyl)-4-(2-aminopyridin-4-yl)-3-(2H-tetrazol-5-yl)benzene-1,2-disulfonamide] here?
A: 0.7813 µM

Q: And the “Klebsiella pneumoniae (VIM-1) MITC95” value [2]?
A: 1.563 µM

Q: Which “Klebsiella pneumoniae (VIM-1) MITC95” value [2] does the source give for NCC(CN)NS(=O)(=O)c1ccc(-c2ccc(N)nc2)c(-c2nn[nH]n2)c1S(N)(=O)=O [Example 404, 4-(6-aminopyridin-3-yl)-N^1-(1,3-diaminopropan-2-yl)-3-(2H-tetrazol-5-yl)benzene-1,2-disulfonamide] here?
A: 1.172 µM

Q: Nc1ncccc1-c1ccc(S(=O)(=O)NC[C@@H]2CNCCN2)c(S(N)(=O)=O)c1-c1nn[nH]n1 [Example 313, (S)-4-(2-aminopyridin-3-yl)-N1-(piperazin-2-ylmethyl)-3-(2H-tetrazol-5-yl)benzene-1,2-disulfonamide] was tested. Which “Klebsiella pneumoniae (VIM-1) MITC95” value [2] did it give?
A: 3.125 µM

Q: And the Efflux ratio [3]?
A: 2.00

Q: For NCCNc1ncccc1-c1ccc(S(=O)(=O)N[C@@H]2CCNC2)c(S(N)(=O)=O)c1-c1nn[nH]n1 [Example 459, (R)-4-(2-((2-Aminoethyl)amino)pyridin-3-yl)-N1-(pyrrolidin-3-yl)-3-(2H-tetrazol-5-yl)benzene-1,2-disulfonamide], which “Serratia marcescens (IMP-1) MITC95” value [1] is on record?
A: 1.563 µM

Q: And the “Klebsiella pneumoniae (VIM-1) MITC95” value [2]?
A: 1.563 µM

Q: Nc1ccc(-c2ccc(S(=O)(=O)N[C@@H]3CCCNC3)c(S(N)(=O)=O)c2-c2nn[nH]n2)cn1 [Example 490, (R)-4-(6-aminopyridin-3-yl)-N1-(piperidin-3-yl)-3-(2H-tetrazol-5-yl)benzene-1,2-disulfonamide] was tested. Which “Serratia marcescens (IMP-1) MITC95” value [1] did it give?
A: 1.563 µM

Q: And the “Klebsiella pneumoniae (VIM-1) MITC95” value [2]?
A: 3.125 µM

Q: With NC(=O)c1csc(Nc2cccc(-c3ccc(S(=O)(=O)N[C@@H]4CCNC4)c(S(N)(=O)=O)c3-c3nn[nH]n3)c2)n1 [Example 471, (R)-2-((4′-(N-(pyrrolidin-3-yl)sulfamoyl)-3′-sulfamoyl-2′-(2H-tetrazol-5-yl)-[1,1′-biphenyl]-3-yl)amino)thiazole-4-carboxamide] as the molecule, how does the “Klebsiella pneumoniae (VIM-1) MITC95” value [2] read?
A: 3.125 µM

Q: With Nc1nc(-c2cccc(-c3ccc(S(=O)(=O)N[C@H]4CCNC4)c(S(N)(=O)=O)c3-c3nn[nH]n3)c2)c[nH]1 [Example 294, (S)-3′-(2-amino-1H-imidazol-4-yl)-N4-(pyrrolidin-3-yl)-2-(2H-tetrazol-5-yl)-[1,1′-biphenyl]-3,4-disulfonamide] as the molecule, how does the “Klebsiella pneumoniae (VIM-1) MITC95” value [2] read?
A: 1.563 µM

Q: What about the Efflux ratio [3] of the same molecule?
A: 2.00

Q: Which “Klebsiella pneumoniae (VIM-1) MITC95” value [2] does the source give for NCCNS(=O)(=O)c1ccc(-c2cnc3cc[nH]c3c2)c(-c2nn[nH]n2)c1S(N)(=O)=O [Example 359, N1-(2-aminoethyl)-4-(1H-pyrrolo[3,2-b]pyridin-6-yl)-3-(2H-tetrazol-5-yl)benzene-1,2-disulfonamide] here?
A: 1.563 µM

Q: And the Efflux ratio [3]?
A: 2.00

Q: For NCCNCCNS(=O)(=O)c1ccc(-c2ccc(N)nc2)c(-c2nn[nH]n2)c1S(N)(=O)=O [Example 482, N1-(2-(−2-amineoethylamino)ethyl)-4-(6-aminopyridin-3-yl)-3-(2H-tetrazol-5-yl)benzene-1,2-disulfonamide], which “Serratia marcescens (IMP-1) MITC95” value [1] is on record?
A: 0.7813 µM

Q: What about the “Klebsiella pneumoniae (VIM-1) MITC95” value [2] of the same molecule?
A: 1.563 µM

Q: What does the source list for C[C@@H](CN)NS(=O)(=O)c1ccc(-c2ccc(N)nc2)c(-c2nn[nH]n2)c1S(N)(=O)=O [Example 394, (S)-N^1-(1-aminopropan-2-yl)-4-(6-aminopyridin-3-yl)-3-(2H-tetrazol-5-yl)benzene-1,2-disulfonamide]?
A: Serratia marcescens (IMP-1) MITC95 [1]: 1.563 µM; Klebsiella pneumoniae (VIM-1) MITC95 [2]: 3.125 µM

Q: Which results are given for NCCNS(=O)(=O)c1ccc(-c2cccnc2N)c(-c2nn[nH]n2)c1S(N)(=O)=O [Example 358, N1-(2-aminoethyl)-4-(2-aminopyridin-3-yl)-3-(2H-tetrazol-5-yl)benzene-1,2-disulfonamide]?
A: Klebsiella pneumoniae (VIM-1) MITC95 [2]: 1.563 µM; Efflux ratio [3]: 2.00

Q: How did the “Klebsiella pneumoniae (VIM-1) MITC95” value [2] turn out when NC[C@H](N)CNS(=O)(=O)c1ccc(-c2cccc3[nH]c(N)nc23)c(-c2nn[nH]n2)c1S(N)(=O)=O [Example 370, (S)-4-(2-amino-1H-benzo[d]imidazol-4-yl)-N1-(2,3-diaminopropyl)-3-(2H-tetrazol-5-yl)benzene-1,2-disulfonamide] was run?
A: 1.563 µM

Q: And the Efflux ratio [3]?
A: 1.00

Q: Which “Serratia marcescens (IMP-1) MITC95” value [1] does the source give for C[C@@H](N)CNS(=O)(=O)c1ccc(-c2ccnc(N)c2)c(-c2nn[nH]n2)c1S(N)(=O)=O [Example 422, (R)-N^1-(2-aminopropyl)-4-(2-aminopyridin-4-yl)-3-(2H-tetrazol-5-yl)benzene-1,2-disulfonamide] here?
A: 0.7813 µM

Q: What about the “Klebsiella pneumoniae (VIM-1) MITC95” value [2] of the same molecule?
A: 1.563 µM

Q: For C[C@H](CN)NS(=O)(=O)c1ccc(-c2cccc3c2nc(N)n3C)c(-c2nn[nH]n2)c1S(N)(=O)=O [Example 395, (R)-4-(2-amino-1-methyl-1H-benzo[d]imidazol-4-yl)-N^1-(1-aminopropan-2-yl)-3-(2H-tetrazol-5-yl)benzene-1,2-disulfonamide], which “Serratia marcescens (IMP-1) MITC95” value [1] is on record?
A: 1.563 µM

Q: And the “Klebsiella pneumoniae (VIM-1) MITC95” value [2]?
A: 1.563 µM

Q: How did the “Klebsiella pneumoniae (VIM-1) MITC95” value [2] turn out when Nc1nc(-c2cccc(-c3ccc(S(=O)(=O)N[C@H]4CNC[C@H]4N)c(S(N)(=O)=O)c3-c3nn[nH]n3)c2)c[nH]1 [Example 327, 3′-(2-amino-1H-imidazol-4-yl)-N4-((3S,4R)-4-aminopyrrolidin-3-yl)-2-(2H-tetrazol-5-yl)[1,1′-biphenyl]-3,4-disulfonamide] was run?
A: 1.563 µM

Q: What about the Efflux ratio [3] of the same molecule?
A: 2.00

Q: For NC[C@H](N)CNS(=O)(=O)c1ccc(-c2ccc(N)nc2)c(-c2nn[nH]n2)c1S(N)(=O)=O [Example 415, (S)-4-(6-aminopyridin-3-yl)-N^1-(2,3-diaminopropyl)-3-(2H-tetrazol-5-yl)benzene-1,2-disulfonamide], which “Klebsiella pneumoniae (VIM-1) MITC95” value [2] is on record?
A: 3.125 µM

Q: With NCCNS(=O)(=O)c1ccc(-c2ccnc(N)c2)c(-c2nn[nH]n2)c1S(N)(=O)=O [Example 400, N^1-(2-aminoethyl)-4-(2-aminopyridin-4-yl)-3-(2H-tetrazol-5-yl)benzene-1,2-disulfonamide] as the molecule, how does the “Klebsiella pneumoniae (VIM-1) MITC95” value [2] read?
A: 1.563 µM

Q: Nc1ccc(-c2ccc(S(=O)(=O)NC[C@@H]3CCCN3)c(S(N)(=O)=O)c2-c2nn[nH]n2)cn1 [Example 488, (S)-4-(6-aminopyridin-3-yl)-N1-(pyrrolidin-2-ylmethyl)-3-(2H-tetrazol-5-yl)benzene-1,2-disulfonamide] was tested. Which “Klebsiella pneumoniae (VIM-1) MITC95” value [2] did it give?
A: 1.563 µM

Q: NC[C@H](CO)NS(=O)(=O)c1ccc(-c2cccc3[nH]nnc23)c(-c2nn[nH]n2)c1S(N)(=O)=O [Example 407, (R)-N^1-(1-amino-3-hydroxypropan-2-yl)-4-(1H-benzo[d][1,2,3]triazol-4-yl)-3-(2H-tetrazol-5-yl)benzene-1,2-disulfonamide] was tested. Which “Serratia marcescens (IMP-1) MITC95” value [1] did it give?
A: 1.563 µM

Q: And the “Klebsiella pneumoniae (VIM-1) MITC95” value [2]?
A: 3.125 µM

Q: NC[C@H](O)CNS(=O)(=O)c1ccc(-c2ccc3nccn3c2)c(-c2nn[nH]n2)c1S(N)(=O)=O [Example 418, (S)-N^1-(3-amino-2-hydroxypropyl)-4-(imidazo[1,2-a]pyridin-6-yl)-3-(2H-tetrazol-5-yl)benzene-1,2-disulfonamide] was tested. Which “Serratia marcescens (IMP-1) MITC95” value [1] did it give?
A: 0.7813 µM

Q: And the “Klebsiella pneumoniae (VIM-1) MITC95” value [2]?
A: 1.563 µM

Q: With Nc1ncc(-c2cccc(-c3ccc(S(=O)(=O)N[C@@H]4CCNC4)c(S(N)(=O)=O)c3-c3nnn[nH]3)n2)[nH]1 [Example 439, (R)-4-(6-(2-Amino-1H-imidazol-5-yl)pyridin-2-yl)-N^1-(pyrrolidin-3-yl)-3-(1H-tetrazol-5-yl)benzene-1,2-disulfonamide] as the molecule, how does the “Serratia marcescens (IMP-1) MITC95” value [1] read?
A: 1.563 µM

Q: And the “Klebsiella pneumoniae (VIM-1) MITC95” value [2]?
A: 1.563 µM

From patent US10544130B2, “Metallo-beta-lactamase inhibitors” (priority 2015, dated 2020)
